Results filed as inconclusive are left out. The source made the active and inactive calls.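 Rule for the calls: active = fitted activation curve crossing 40% at a concentration no higher than the sample's top valid tested dose; inconclusive = flat fitted curve at 30% to 70% activation, or poor curve fit; inactive = signal decrease, flat curve within 30%, or the rest.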
Tested on: NIH3T3-HGL HSF-1 response element luciferase, 48 h
Test: HSF-1 reporter activators over prolonged exposure, confirmation, cell-based, mouse, luciferase, cherry-pick, dose (AID 602296);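 note: test compounds applied by themselves with no MG132 co-treatment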

Structure (SMILES) | AC40
O=[N+]([O-])c1ccc(S(=O)(=O)N2CCSC2c2ccco2)cc1 (stereo unspecified) | > 26 µM (inactive)
CSc1c(C#N)c(N)nc2sc(C(=O)c3ccccc3)c(N)c12 | 5.48 µM
CC1=C(Sc2nc3ccccc3[nH]2)C(=O)NC(C)(C)C1 | > 26 µM (inactive)
S=C(Nc1ccc(Cl)cc1)Nc1cccc2cnccc12 | > 26 µM (inactive)
O=C(Nc1ccccc1C(=O)OCC(=O)c1c[nH]c2ccccc12)c1ccco1 | > 26 µM (inactive)
Cc1cc(C(=O)N2CCN(c3ccccn3)CC2)c(C)o1 | > 26 µM (inactive)
NC(=O)c1nn(-c2ccccc2)nc1NC(=O)CN1CCCCC1 | > 26 µM (inactive)
CCOC(=O)C1CCN(C(=O)c2ccc3c(Cl)c4c(nc3c2)CCCC4)CC1 | > 26 µM (inactive)
Cc1noc2ncnc(Sc3ccc(Br)cc3)c12 | > 26 µM (inactive)
c1ccc(COc2ccccc2CNC2CCCC2)cc1 | > 26 µM (inactive)
O=C1NCC2=C1C(c1ccc(Br)cc1)Nc1ccccc1N2 (stereo unspecified) | 3.58 µM
Cc1onc(-c2ccccc2)c1NC(=O)N(CCC#N)Cc1ccccc1 | > 26 µM (inactive)
CC(=NCc1ccco1)C1=C(O)c2ccccc2C1=O | 16.6 µM
Cc1cc(C)n2nc(C(=O)N/N=C/c3c4ccccc4cc4ccccc34)nc2n1 | > 12 µM (inactive)
c1ccc2c(Nc3nnc(-c4ccncc4)s3)cccc2c1 | 1.24 µM
Cc1ccc(/C=C2\Oc3cc(OC(=O)N4CCOCC4)ccc3C2=O)cc1 | > 26 µM (inactive)
Cc1ccc(NC(=O)N2CCCC2C(=O)Nc2c(C)cc(C)cc2C)cc1 (stereo unspecified) | > 26 µM (inactive)
O=C(CSc1nnc(-c2ccc(F)cc2)c2ccccc12)Nc1ccccc1 | 18.7 µM

Structure (SMILES) | AC40
CN(c1ccccc1)c1nc(N)c([N+](=O)[O-])c(N2CCCCCC2)n1 | > 26 µM (inactive)
CC(=O)NC(=O)NC1OC(=O)C(Cl)=C1Cl (stereo unspecified) | > 26 µM (inactive)
CCOC(=O)c1cnc2ccc(C)cc2c1Sc1ccc(F)cc1 | > 12 µM (inactive)
Cc1ccccc1CC(=O)NC1CCCc2ccccc21 (stereo unspecified) | > 26 µM (inactive)
CC(C)(C)NC(=O)c1ccc2c(c1)N(CC(=O)N1CCCCC1)C(=O)C(C)(C)O2 | > 26 µM (inactive)
NS(=O)(=O)c1ccc(NC(=O)CN2C(=O)CCC2=O)cc1 | > 26 µM (inactive)
O=C(Nc1ccc2c(c1)C(=O)OC2)c1ccc(Cl)cc1 | 12.2 µM
O=c1[nH]c2ccccc2n1CCC1CCCCC1 | 5.36 µM
C=CCC(NCc1ccco1)c1ccc(OC)c(OC)c1 (stereo unspecified) | > 26 µM (inactive)
O=c1/c(=C/c2ccccc2)sc2nnc(-c3cccs3)n12 | > 26 µM (inactive)
CC(=O)Nc1ccc(N/C=C/C(=O)C(C)(C)C)cc1 | > 26 µM (inactive)
Cc1cccc(C)c1NC(=O)COC(=O)c1cccc2c1C(=O)c1ccccc1C2=O | > 26 µM (inactive)
CCC(C)(C)c1ccc(OC(=O)c2cccnc2Cl)cc1 | > 26 µM (inactive)
COc1cccc(N=Nc2c(O)[nH]c(=S)[nH]c2=O)c1 | 10.1 µM
COc1ccc(C(=O)CC(=O)C(=O)Nc2cc(OC)c(OC)c(OC)c2)cc1 | > 26 µM (inactive)
CC(=O)Nc1cccc(-n2nnc(SCC(=O)Nc3ccc(F)c(Cl)c3)n2)c1 | > 26 µM (inactive)
O=C(O)CN1C(=O)/C(=C\c2cc(Br)ccc2OCc2ccc(F)cc2)SC1=S | > 26 µM (inactive)
Cc1ccc(-n2c(SCC(=O)Nc3cc(S(=O)(=O)N4CCOCC4)ccc3Cl)nc3ccccc3c2=O)cc1 | 16 µM

Reference: PubChem BioAssay AID602296 (Broad Institute, 2012)
